Relative viability data for seven cell lines are collected here from the supplement of paper PMC10307832.

Common to all, as to assay: relative viability (nuclei count vs DMSO), 5 days (fraction); higher = more cells survive
Compound in one experiment: COc1cc([C@@H]2c3cc4c(cc3[C@@H](O[C@@H]3O[C@@H]5CO[C@@H](C)O[C@H]5[C@H](O)[C@H]3O)[C@H]3COC(=O)[C@H]23)OCO4)cc(OC)c1O [Etoposide]
The essentials:
(§1)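 In 1536-well plates, lung cancer cell lines rested overnight at 37 °C before five library-drug doses (not always all listed), √10 apart, were pinned onto vehicle-anchored plates. Nuclei were counted with MetaXpress from 4× Hoechst images taken after 5 days without medium change. Viability compares treated-well with vehicle-well nuclei as a median over plates, and plates needed control CV below 25% plus at least one doubling to pass.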

Compound in a further experiment: CC1=C(N=C(N=C1N)[C@H](CC(=O)N)NC[C@@H](C(=O)N)N)C(=O)N[C@@H]([C@H](C2=CN=CN2)OC3C(C(C(C(O3)CO)O)O)OC4C(C(C(C(O4)CO)O)OC(=O)N)O)C(=O)N[C@H](C)[C@H]([C@H](C)C(=O)N[C@@H]([C@@H](C)O)C(=O)NCCC5=NC(=CS5)C6=NC(=CS6)C(=O)NCCC[S+](C)C)O [Bleomycin]
The following applies: main component drawn. The method, boiled down:
as §1

Compound in the experiment “Etoposide + Pemetrexed”: COc1cc([C@@H]2c3cc4c(cc3[C@@H](O[C@@H]3O[C@@H]5CO[C@@H](C)O[C@H]5[C@H](O)[C@H]3O)[C@H]3COC(=O)[C@H]23)OCO4)cc(OC)c1O [Etoposide] + Nc1nc2[nH]cc(CCc3ccc(C(=O)N[C@@H](CCC(=O)O)C(=O)O)cc3)c2c(=O)[nH]1 [Pemetrexed] (partner 0.2 µM)
The method, boiled down:
(§2)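 Each reported value is a median over duplicate plates. It expresses relative viability: treated-well nuclei count divided by vehicle-well nuclei count. Lung cancer cell lines in 1536-well plates were dosed by pin tool a day after seeding, alone with one drug or with a fixed anchor-drug dose plus five library-drug doses (not always all listed) in √10 steps, and nuclei were counted after 5 days.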

Compound in the experiment “Bleomycin + Alpelisib”: CC1=C(N=C(N=C1N)[C@H](CC(=O)N)NC[C@@H](C(=O)N)N)C(=O)N[C@@H]([C@H](C2=CN=CN2)OC3C(C(C(C(O3)CO)O)O)OC4C(C(C(C(O4)CO)O)OC(=O)N)O)C(=O)N[C@H](C)[C@H]([C@H](C)C(=O)N[C@@H]([C@@H](C)O)C(=O)NCCC5=NC(=CS5)C6=NC(=CS6)C(=O)NCCC[S+](C)C)O [Bleomycin] + Cc1nc(NC(=O)N2CCC[C@H]2C(N)=O)sc1-c1ccnc(C(C)(C)C(F)(F)F)c1 [Alpelisib] (partner 2 µM)
The following applies: main component drawn. The essentials:
as §2

For the cell line LU99A, the relative viability worked out at 0.934 with Etoposide (0.01 µM); 1.17 with Etoposide (0.03162 µM); 0.499 in the experiment with Etoposide (0.1 µM); 0.681 with Etoposide (0.3162 µM); 0.233 with Etoposide (1 µM); 0.766 in the experiment with Bleomycin (0.01 µM). Besides, the relative viability was 0.794 in the experiment with Bleomycin (0.03162 µM); 0.659 with Bleomycin (0.1 µM); 0.407 in the experiment with Bleomycin (0.3162 µM); 0.242 in the experiment with Bleomycin (1 µM); 0.161 with Etoposide + Pemetrexed (first compound 0.01 µM); 0.18 in the experiment with Etoposide + Pemetrexed (first compound 0.03162 µM). The relative viability in the experiment with Etoposide + Pemetrexed (first compound 0.1 µM) is 0.186; in the experiment with Etoposide + Pemetrexed (first compound 0.3162 µM), 0.163; with Etoposide + Pemetrexed (first compound 1 µM) it was 0.167; with Bleomycin + Alpelisib (first compound 0.01 µM), 0.345; with Bleomycin + Alpelisib (first compound 0.03162 µM), 0.332; with Bleomycin + Alpelisib (first compound 0.1 µM), 0.239. Also, the relative viability with Bleomycin + Alpelisib (first compound 0.3162 µM) is 0.137; in the experiment with Bleomycin + Alpelisib (first compound 1 µM) it was 0.118.
For NCI-H650, the relative viability worked out at 0.949 with Etoposide (0.01 µM); 0.98 with Etoposide (0.03162 µM); 0.68 in the experiment with Etoposide (0.1 µM); 0.561 with Etoposide (0.3162 µM); 0.256 with Etoposide (1 µM); 0.743 with Bleomycin (0.01 µM). The relative viability with Bleomycin (0.03162 µM) was determined as 1.11; with Bleomycin (0.1 µM), 0.768; with Bleomycin (0.3162 µM) it was 0.492; in the experiment with Bleomycin (1 µM) it was 0.242; in the experiment with Etoposide + Pemetrexed (first compound 0.01 µM), 0.901; with Etoposide + Pemetrexed (first compound 0.03162 µM), 1.01. Further, the relative viability worked out at 0.608 in the experiment with Etoposide + Pemetrexed (first compound 0.1 µM); 0.673 with Etoposide + Pemetrexed (first compound 0.3162 µM); 0.347 with Etoposide + Pemetrexed (first compound 1 µM); 0.948 with Bleomycin + Alpelisib (first compound 0.01 µM); 1.03 in the experiment with Bleomycin + Alpelisib (first compound 0.03162 µM); 0.827 with Bleomycin + Alpelisib (first compound 0.1 µM). Further, the results for the relative viability with Bleomycin + Alpelisib (first compound 0.3162 µM) and with Bleomycin + Alpelisib (first compound 1 µM) were 0.456 and 0.312, respectively.
In the case of HCC-78, the relative viability with Etoposide (0.01 µM) came out at 0.942; with Etoposide (0.03162 µM), 1.09; with Etoposide (0.1 µM) it was 0.687; with Etoposide (0.3162 µM), 0.515; in the experiment with Etoposide (1 µM), 0.273; with Bleomycin (0.01 µM), 0.788. Also, the relative viability in the experiment with Bleomycin (0.03162 µM) worked out at 0.994; with Bleomycin (0.1 µM), 0.883; in the experiment with Bleomycin (0.3162 µM), 0.564; with Bleomycin (1 µM), 0.642; with Etoposide + Pemetrexed (first compound 0.01 µM), 0.901; in the experiment with Etoposide + Pemetrexed (first compound 0.03162 µM), 0.954. Further, the relative viability worked out at 0.84 with Etoposide + Pemetrexed (first compound 0.1 µM); 0.916 with Etoposide + Pemetrexed (first compound 0.3162 µM); 0.906 in the experiment with Etoposide + Pemetrexed (first compound 1 µM); 0.287 in the experiment with Bleomycin + Alpelisib (first compound 0.01 µM); 0.266 in the experiment with Bleomycin + Alpelisib (first compound 0.03162 µM); 0.285 with Bleomycin + Alpelisib (first compound 0.1 µM). Also, the relative viability turned out to be 0.222 with Bleomycin + Alpelisib (first compound 0.3162 µM) and 0.174 in the experiment with Bleomycin + Alpelisib (first compound 1 µM).
On to NCI-H1755, for which the relative viability with Etoposide (0.01 µM) is 0.998; in the experiment with Etoposide (0.03162 µM), 1.05; with Etoposide (0.1 µM) it was 0.963; with Etoposide (0.3162 µM) it was 0.935; with Etoposide (1 µM), 0.829; with Bleomycin (0.01 µM), 0.94. The relative viability with Bleomycin (0.03162 µM) was determined as 1; with Bleomycin (0.1 µM), 0.96; in the experiment with Bleomycin (0.3162 µM), 0.813; with Bleomycin (1 µM) it was 0.673; with Etoposide + Pemetrexed (first compound 0.01 µM) it was 0.468; with Etoposide + Pemetrexed (first compound 0.03162 µM), 0.467. Further, the relative viability with Etoposide + Pemetrexed (first compound 0.1 µM) amounted to 0.519; in the experiment with Etoposide + Pemetrexed (first compound 0.3162 µM), 0.41; with Etoposide + Pemetrexed (first compound 1 µM) it was 0.428; with Bleomycin + Alpelisib (first compound 0.01 µM), 0.939; with Bleomycin + Alpelisib (first compound 0.03162 µM), 0.93; with Bleomycin + Alpelisib (first compound 0.1 µM) it was 0.906. Further, the relative viability is 0.658 with Bleomycin + Alpelisib (first compound 0.3162 µM) and 0.58 with Bleomycin + Alpelisib (first compound 1 µM).
Consider NCI-H322M, for which the relative viability with Etoposide (0.01 µM) worked out at 0.947; in the experiment with Etoposide (0.03162 µM), 1.05; in the experiment with Etoposide (0.1 µM), 0.822; with Etoposide (0.3162 µM), 0.838; with Etoposide (1 µM) it was 0.52; with Bleomycin (0.01 µM) it was 0.861. In addition, the relative viability with Bleomycin (0.03162 µM) was determined as 1.02; with Bleomycin (0.1 µM) it was 0.928; in the experiment with Bleomycin (0.3162 µM), 0.568; with Bleomycin (1 µM) it was 0.54; with Etoposide + Pemetrexed (first compound 0.01 µM), 0.604; with Etoposide + Pemetrexed (first compound 0.03162 µM) it was 0.603. Besides, the relative viability with Etoposide + Pemetrexed (first compound 0.1 µM) came to 0.625; with Etoposide + Pemetrexed (first compound 0.3162 µM) it was 0.587; in the experiment with Etoposide + Pemetrexed (first compound 1 µM), 0.524; with Bleomycin + Alpelisib (first compound 0.01 µM) it was 0.738; with Bleomycin + Alpelisib (first compound 0.03162 µM), 0.84; with Bleomycin + Alpelisib (first compound 0.1 µM), 0.81. Also, the relative viability was 0.859 with Bleomycin + Alpelisib (first compound 0.3162 µM) and 0.559 in the experiment with Bleomycin + Alpelisib (first compound 1 µM).
As for PC-3 [JPC-3], the relative viability with Etoposide (0.01 µM) came out at 1.03; with Etoposide (0.03162 µM), 1.1; with Etoposide (0.1 µM), 1.07; with Etoposide (0.3162 µM), 0.989; with Etoposide (1 µM) it was 0.837; with Bleomycin (0.01 µM), 1.01. Moreover, the relative viability with Bleomycin (0.03162 µM) was determined as 1.01; with Bleomycin (0.1 µM) it was 0.939; with Bleomycin (0.3162 µM), 0.73; with Bleomycin (1 µM) it was 0.535; in the experiment with Etoposide + Pemetrexed (first compound 0.01 µM) it was 1.1; with Etoposide + Pemetrexed (first compound 0.03162 µM), 1.23. Moreover, the relative viability with Etoposide + Pemetrexed (first compound 0.1 µM) amounted to 1.09; in the experiment with Etoposide + Pemetrexed (first compound 0.3162 µM), 0.977; with Etoposide + Pemetrexed (first compound 1 µM), 0.706; with Bleomycin + Alpelisib (first compound 0.01 µM), 0.847; with Bleomycin + Alpelisib (first compound 0.03162 µM), 0.993; with Bleomycin + Alpelisib (first compound 0.1 µM), 0.905. Further, the relative viability in the experiment with Bleomycin + Alpelisib (first compound 0.3162 µM) was 0.655; with Bleomycin + Alpelisib (first compound 1 µM), 0.506.
Consider NCI-H2405, for which the relative viability with Etoposide (0.01 µM) was 1.04; with Etoposide (0.03162 µM), 1.09; with Etoposide (0.1 µM) it was 0.772; with Etoposide (0.3162 µM), 0.835; with Etoposide (1 µM), 0.47; with Bleomycin (0.01 µM), 0.884. The relative viability with Bleomycin (0.03162 µM) came to 0.969; in the experiment with Bleomycin (0.1 µM), 0.918; with Bleomycin (0.3162 µM), 0.569; with Bleomycin (1 µM), 0.394; with Etoposide + Pemetrexed (first compound 0.01 µM) it was 1.07; in the experiment with Etoposide + Pemetrexed (first compound 0.03162 µM), 1.14. Also, the relative viability with Etoposide + Pemetrexed (first compound 0.1 µM) came to 0.846; with Etoposide + Pemetrexed (first compound 0.3162 µM), 0.935; with Etoposide + Pemetrexed (first compound 1 µM), 0.365; with Bleomycin + Alpelisib (first compound 0.01 µM), 0.648; with Bleomycin + Alpelisib (first compound 0.03162 µM) it was 0.704; in the experiment with Bleomycin + Alpelisib (first compound 0.1 µM), 0.615. Moreover, the relative viability is 0.312 in the experiment with Bleomycin + Alpelisib (first compound 0.3162 µM) and 0.306 with Bleomycin + Alpelisib (first compound 1 µM).
